From the supplement of paper PMC11451515

Tested on: P12-Ichikawa
Assay: cell viability relative to DMSO control; higher = less cytotoxic
Details: 48 h
Method in brief: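 Before seeding, each leukemia line was adapted for at least four passages in each medium. NOMO1 or SEM cells (500 cells/well) and P12-Ichikawa cells (1000 cells/well) went into 1536-well plates at 5 μl, then received library compounds in DMSO by pin dosing across 11 threefold concentrations, 47 μM to 0.79 nM. Readout was CellTiter-Glo One luminescence after 48 h at 37°C, and viability is given as a per-plate percentage of DMSO wells, with cell-free wells as background.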

[1] = HPLM + 10% dialyzed FBS, 0.000781 µM
[2] = HPLM + 10% dialyzed FBS, 0.00234 µM
[3] = HPLM + 10% dialyzed FBS, 0.00702 µM
[4] = HPLM + 10% dialyzed FBS, 0.0211 µM
[5] = HPLM + 10% dialyzed FBS, 0.0632 µM
[6] = HPLM + 10% dialyzed FBS, 0.19 µM
[7] = HPLM + 10% dialyzed FBS, 0.569 µM
[8] = HPLM + 10% dialyzed FBS, 1.71 µM
[9] = HPLM + 10% dialyzed FBS, 5.12 µM
[10] = HPLM + 10% dialyzed FBS, 15.4 µM
[11] = HPLM + 10% dialyzed FBS, 46.1 µM
[12] = RPMI 5 mM glucose + 10% FBS, 0.000781 µM
[13] = RPMI 5 mM glucose + 10% FBS, 0.00234 µM
[14] = RPMI 5 mM glucose + 10% FBS, 0.00702 µM
[15] = RPMI 5 mM glucose + 10% FBS, 0.0211 µM
[16] = RPMI 5 mM glucose + 10% FBS, 0.0632 µM
[17] = RPMI 5 mM glucose + 10% FBS, 0.19 µM
[18] = RPMI 5 mM glucose + 10% FBS, 0.569 µM
[19] = RPMI 5 mM glucose + 10% FBS, 1.71 µM
[20] = RPMI 5 mM glucose + 10% FBS, 5.12 µM
[21] = RPMI 5 mM glucose + 10% FBS, 15.4 µM
[22] = RPMI 5 mM glucose + 10% FBS, 46.1 µM
[23] = RPMI 5 mM glucose + 10% dialyzed FBS, 0.000781 µM
[24] = RPMI 5 mM glucose + 10% dialyzed FBS, 0.00234 µM
[25] = RPMI 5 mM glucose + 10% dialyzed FBS, 0.00702 µM
[26] = RPMI 5 mM glucose + 10% dialyzed FBS, 0.0211 µM
[27] = RPMI 5 mM glucose + 10% dialyzed FBS, 0.0632 µM
[28] = RPMI 5 mM glucose + 10% dialyzed FBS, 0.19 µM
[29] = RPMI 5 mM glucose + 10% dialyzed FBS, 0.569 µM
[30] = RPMI 5 mM glucose + 10% dialyzed FBS, 1.71 µM
[31] = RPMI 5 mM glucose + 10% dialyzed FBS, 5.12 µM
[32] = RPMI 5 mM glucose + 10% dialyzed FBS, 15.4 µM
[33] = RPMI 5 mM glucose + 10% dialyzed FBS, 46.1 µM

| SMILES | cell viability [1] | cell viability [2] | cell viability [3] | cell viability [4] | cell viability [5] | cell viability [6] | cell viability [7] | cell viability [8] | cell viability [9] | cell viability [10] | cell viability [11] | cell viability [12] | cell viability [13] | cell viability [14] | cell viability [15] | cell viability [16] | cell viability [17] | cell viability [18] | cell viability [19] | cell viability [20] | cell viability [21] | cell viability [22] | cell viability [23] | cell viability [24] | cell viability [25] | cell viability [26] | cell viability [27] | cell viability [28] | cell viability [29] | cell viability [30] | cell viability [31] | cell viability [32] | cell viability [33] |
| --- | --- | --- | --- | --- | --- | --- | --- | --- | --- | --- | --- | --- | --- | --- | --- | --- | --- | --- | --- | --- | --- | --- | --- | --- | --- | --- | --- | --- | --- | --- | --- | --- | --- |
| Clc1ccc(C(Cn2ccnc2)OCc2ccc(Sc3ccccc3)cc2)c(Cl)c1 (centres undefined) | 103% | 110% | 107% | 111% | 117% | 110% | 118% | 115% | 111% | 106% | 9.24% | 115% | 120% | 109% | 115% | 116% | 108% | 110% | 117% | 109% | 105% | 14.3% | 111% | 102% | 111% | 107% | 107% | 104% | 105% | 101% | 102% | 101% | 19.5% |
| NCC/1=C/NC(=S)N1[C@H]2CCC3=C(F)C=C(F)C=C3C2 | 127% | 114% | 114% | 126% | 123% | 121% | 119% | 121% | 113% | 111% | 92.5% | 134% | 125% | 124% | 120% | 129% | 132% | 139% | 127% | 121% | 116% | 92.5% | 124% | 117% | 128% | 126% | 120% | 120% | 119% | 119% | 117% | 110% | 72.7% |
| NC(=O)c1c(OCc2c(F)cc(Br)cc2F)nsc1NC(=O)NCCCCN1CCCC1 | 107% | 112% | 103% | 104% | 99.9% | 102% | 98.8% | 100% | 89.5% | 45.2% | 43.8% | – | – | – | – | – | – | – | – | – | – | – | 123% | 126% | 116% | 111% | 108% | 111% | 111% | 96.7% | 99.6% | 46.9% | 68.1% |
| Cc1nc(N)sc1-c1ccnc(Nc2ccc(N3CCOCC3)cc2)n1 | 97.4% | 100% | 108% | 109% | 112% | 108% | 111% | 104% | 19.4% | 25% | 43.8% | 92.4% | 107% | 105% | 107% | 114% | 113% | 109% | 116% | 29.3% | 24.6% | 37.6% | 97.6% | 111% | 112% | 109% | 112% | 114% | 112% | 110% | 35.4% | 42% | 38.5% |
| COc1cc([C@@H]2c3cc4c(cc3[C@@H](O)C3COC(=O)C32)OCO4)cc(OC)c1O (some centres undefined) | 86.8% | 92.3% | 88.4% | 9.03% | 95.5% | 38.3% | 9.82% | 8.57% | 5.22% | 5.25% | 4.78% | 80.2% | – | 92.1% | 10.5% | 102% | 56.8% | 14.4% | 7.77% | 6.85% | 4.81% | 5.33% | 77.1% | 91.5% | 94.6% | 22.6% | 94.5% | 63.7% | 19% | 12.9% | 9.44% | 7.81% | 5.82% |
| CCCCC(F)(F)[C@@]1(O)CC[C@H]2[C@@H](CC(=O)[C@@H]2CCCCCCC(=O)O)O1 | 128% | 123% | 120% | 124% | 122% | 116% | 117% | 103% | 108% | 111% | 113% | – | – | – | – | – | – | – | – | – | – | – | – | – | – | – | – | – | – | – | – | – | – |
| Cc1ccc(Nc2nccc(N(C)c3ccc4c(C)n(C)nc4c3)n2)cc1[S+](N)(=O)[O-] | 105% | 102% | 105% | 110% | 108% | 114% | 113% | 111% | 104% | 91.9% | 20.8% | 106% | 115% | 109% | 109% | 113% | 116% | 113% | 111% | 120% | 78.4% | 23.7% | 99.7% | 101% | 104% | 102% | 102% | 99.9% | 110% | 107% | 108% | 83.3% | 27.8% |
| O=C(O)CCCc1ccc(N(CCCl)CCCl)cc1 | 117% | 116% | 118% | 122% | 125% | 122% | 125% | 126% | 123% | 123% | 20.4% | – | – | – | – | – | – | – | – | – | – | – | – | – | – | – | – | – | – | – | – | – | – |
| COc1cc2nc(N3CCN(C(=O)c4ccco4)CC3)nc(N)c2cc1OC | 88.4% | 91.4% | 95% | 102% | 99% | 93.2% | 110% | 84.7% | 97.1% | 55.1% | 4.81% | 84.1% | 88.8% | 97.8% | 91.6% | 98.2% | 103% | 87% | 95% | 91.2% | 98.9% | 5.43% | 77.1% | 74.4% | 91% | 80.1% | 90.7% | 85.3% | 93.5% | 89.1% | 90.1% | 95.1% | 5.58% |
| CON(C)C(=O)N1\N=C(/S[C@]1(CCCN)C2=CC=CC=C2)C3=CC(=CC=C3F)F | 46% | 13.4% | 12.4% | 12.8% | 13% | 12.8% | 14.2% | 12.1% | 12.7% | 11.2% | 13.1% | 12% | 17.2% | 17.5% | 16.2% | 16.8% | 17.7% | 16.6% | 13.6% | 14.2% | 12.2% | 11.2% | 24.8% | 28% | 21.3% | 21.4% | 22.5% | 24.6% | 21% | 22.4% | 19.1% | 18.3% | 19.9% |
| O=C(N[C@H]1CN2CCC1CC2)c1ccc(Cl)cc1 | 99.2% | 107% | 104% | 110% | 110% | 116% | 114% | 114% | 116% | 109% | 99.2% | 110% | 106% | 114% | 103% | 108% | 111% | 114% | 110% | 106% | 101% | 99.9% | 98.2% | 100% | 104% | 114% | 118% | 116% | 113% | 114% | 102% | 104% | 92.4% |
| COc1cc([S+](C)(=O)[O-])ccc1Nc1nc2ccc(-c3ccc(NC(=O)[C@H](C)c4ccc(F)cc4)cc3)cn2n1 | 109% | 106% | 108% | 110% | 120% | 117% | 120% | 49% | 56.4% | 61.4% | 65% | 103% | 116% | 118% | 108% | 113% | 117% | 114% | 37.2% | 55.1% | 56.4% | 57.1% | – | – | – | – | – | – | – | – | – | – | – |
